Experimental data as given in publication PMC11574021, “CEP192 localises mitotic Aurora-A activity by priming its interaction with TPX2” (The EMBO Journal, 2024).

Test system: Aurora-A in U251 cells
Assay: Immunofluorescence, Aurora-A spindle pole signal intensity, U251
Assay type: cell-based, Homo sapiens
Settings: U251, siRNA 48 h or Aurora-A inhibitor 30 min (250 nM)
Procedure: Drugs were resuspended in DMSO to the stock concentrations indicated in square brackets.
For immunofluorescence, 1 × 10^5 cells were seeded in six-well plates and simultaneously transfected with 60 pmol siRNA duplex and 3 µl transfection reagent diluted in 200 µl Opti-MEM serum-free medium. Growth medium was added to a final volume of 2 ml. For western blotting, 1 × 10^6 cells were seeded in 10 cm dishes and transfected with 300 pmol siRNA duplex and 15 µl transfection reagent diluted in 1000 µl Opti-MEM. Growth medium was added to a final volume of 10 ml. Cells were incubated with siRNA for 48 h prior to fixation or harvesting. As a negative control (siControl) Silencer select negative control No.1 siRNA was transfected as above. For TACC3 depletion, where two siRNA duplexes were used, 40 pmol of each was transfected per well.
For siRNA depletion, 1 × 10^5 cells were seeded in six-well plates and transfected as described above for 48 h prior to fixation. For all other experiments, 2.5 × 10^5 cells were seeded in six-well plates and grown for 24 h before fixation. […] Cells in Fig. EV4A were fixed using 4% (wt/v) paraformaldehyde (PFA) in PBS for 12 min, followed by 10 min quenching in 50 mM NH4Cl in PBS and 5 min of permeabilization with 0.2% (v/v) Triton X-100 in PBS, all at room temperature. For centriole staining in Fig. EV4E, cells were fixed in pre-chilled methanol for 10 min at −20 °C, incubated in PBS for 10 min and then 5 min in 0.5% Triton-X-100, 0.5% Tween, 0.05% SDS in PBS (v/v). To observe centromere and kinetochore staining in Fig. 7C and Appendix Fig. S8A, cells were fixed with PTEMF buffer (20 mM PIPES pH 6.8, 0.2% (v/v) Triton X-100, 10 mM EGTA, 1 mM MgCl2, 4% PFA (wt/v) in PBS) for 12 min at room temperature. For all other experiments, cells were fixed in pre-chilled methanol for 5 min at −20 °C. Following fixation, coverslips were blocked in 2% BSA (wt/v), 0.1% Tween (v/v) in PBS, this and all antibody incubation steps were carried out for 1 h at room temperature, unless otherwise stated. Primary and secondary antibody (Life technologies) dilutions were made in 0.1% Tween, PBS, with secondary staining being conducted in the dark. Coverslips were gently washed with three x 2 ml 0.2% Tween, PBS between antibody incubation steps. […]
Here “area” refers to the area of DAPI-stained DNA, determined by thresholding (default mode) the region of interest. […] The diameter calculated, therefore, refers to that of a circle with equivalent area to the DAPI signal measured previously. The area of the nuclear DAPI signal (Appendix Fig. S6I) was determined by thresholding (as above). […] All fluorescence intensity and area measurements were obtained from maximum intensity z-projections. […]

Compound: COc1cc(Nc2ncc3c(n2)-c2ccc(Cl)cc2C(c2c(F)cccc2OC)=NC3)ccc1C(=O)O [Alisertib]
- spindle (pole)-associated Aurora-A level (listed as Aurora-A inhibition): significant drop

Compound: 5′-CAAACAACUUGGAAAUCGAtt-3′ [siCEP192]
- spindle (pole)-associated Aurora-A level: significant drop

Compound: 5′-CGGUAGUGAUAAAAGCUCAtt-3′ [siTPX2]
- spindle (pole)-associated Aurora-A level (listed as TPX2 depletion): complete loss of Aurora-A from mitotic spindles
- spindle (pole)-associated Aurora-A level (listed as depletion of TPX2): diminished levels of spindle pole-associated Aurora-A
